Where “and” joins values, the source holds several entries; their conditions need not be identical. Identical values can stand only once. Like-named read-outs stand apart in the source and are kept apart here.
What was measured:
[1] = system: Botrytis cinerea; assay: Botrytis test (beans)/preventive
Method: After the spray coating has dried on, 2 small pieces of agar covered with growth of Botrytis cinerea are placed on each leaf. The inoculated plants are placed in a darkened chamber at 20° C. and a relative atmospheric humidity of 100%. 2 days after the inoculation, the size of the lesions on the leaves is evaluated.

[2] = system: Phytophthora infestans; assay: whole plant or invertebrate; format: in vivo; details: Phytophthora infestans, 72 h, read-out: Efficacy in % found
[3] = system: Blumeria graminis f.sp. hordei; assay: Blumeria test (barley)/preventive; format: in vivo; details: Blumeria graminis, 168 h, read-out: Efficacy in % found; for pest or weed control at 10 ppm: 10 ppm a.i.
[4] = system: Venturia inaequalis; assay: Venturia test (apples)/preventive; details: for pest or weed control at 0.5 ppm: 0.5 ppm a.i.
Method: After the spray coating has dried on, the plants are inoculated with an aqueous conidia suspension of the causal agent of apple scab (Venturia inaequalis) and then remain for 1 day in an incubation cabinet at approximately 20° C. and a relative atmospheric humidity of 100%.
The plants are then placed in a greenhouse at approximately 21° C. and a relative atmospheric humidity of approximately 90%.
The test is evaluated 10 days after the inoculation.

[5] = system: Puccinia triticina; assay: Puccinia triticina-test (wheat)/preventive; format: in vivo; details: preventive, evaluated 8 days after inoculation; for pest or weed control at 10 ppm / pest or weed control at 40 ppm: Puccinia triticina, 192 h, read-out: Efficacy in % found; for pest or weed control at 40 ppm: application rate 40 ppm a.i.
[6] = system: Alternaria solani; assay: Alternaria test (tomatoes)/preventive; format: in vivo; details: Alternaria solani, 72 h, read-out: Efficacy in % found
[7] = system: Fusarium nivale (var. majus); assay: Fusarium nivale (var. majus)-test (wheat)/preventive; details: Microdochium nivale, in Triticum aestivum, 120 h; for pest or weed control at 10 ppm: 10 ppm a.i.; for pest or weed control at 40 ppm: 40 ppm a.i.
Method: After the spray coating has been dried, the plants are slightly injured by using a sandblast and afterwards they are sprayed with a conidia suspension of Fusarium nivale (var. majus).
The plants are placed in the greenhouse under a translucent incubation cabinet at a temperature of approximately 10° C. and a relative atmospheric humidity of approximately 100%.
The test is evaluated 5 days after the inoculation.

[8] = system: Leptosphaeria nodorum; assay: Leptosphaeria nodorum test (wheat)/preventive; format: in vivo; details: for pest or weed control at 10 ppm / pest or weed control at 40 ppm: Parastagonospora nodorum, 192 h, read-out: Efficacy in % found; for pest or weed control at 40 ppm: application rate 40 ppm
[9] = system: Septoria tritici; assay: Septoria tritici-test (wheat)/preventive; format: in vivo; details: Zymoseptoria tritici, 504 h, preventive, evaluated 21 days after inoculation, read-out: Efficacy in % found; for pest or weed control at 10 ppm: application rate 10 ppm a.i.
[10] = system: Sphaerotheca fuliginea; assay: Sphaerotheca test (cucumbers)/preventive; format: in vivo; details: Podosphaera fuliginea, 168 h, read-out: Efficacy in % found; for pest or weed control at 0.5 ppm: 0.5 ppm a.i.; for pest or weed control at 0.25 ppm: 0.25 ppm a.i.
[11] = system: Pyrenophora teres; assay: Pyrenophora teres-test (barley)/preventive; format: in vivo; details: application rate 10 ppm a.i., preventive, evaluated 8 days after inoculation
[12] = system: Fusarium graminearum; format: in vivo
[13] = read-out: Efficacy in % found, Table 8e
[14] = application rate 10 ppm, wheat, preventive, evaluated 8 days after inoculation
[15] = wheat, preventive, evaluated 8 days after inoculation
[16] = Venturia inaequalis, 240 h, read-out: Efficacy in % found, Table 2b, 0.25 ppm a.i.

| SMILES | pest or weed control at 0.5 ppm [2] | pest or weed control at 10 ppm ([5]; application rate 10 ppm a.i.) | pest or weed control at 40 ppm [5] | pest or weed control at 10 ppm [8, 14] | pest or weed control at 40 ppm [8, 15] | pest or weed control at 0.25 ppm [2] | pest or weed control at 100 ppm [2] | pest or weed control at 0.25 ppm [4, 16] | Efficacy in % found [11] | pest or weed control at 0.5 ppm ([6]; Table 3b) | Efficacy in % found ([12]; Table 7b, 10 ppm a.i.) | Efficacy in % found ([12]; Table 7b, 40 ppm a.i.) | pest or weed control at 10 ppm [9] | Efficacy in % found ([12]; Table 7a, 10 ppm a.i.) | further results |
| --- | --- | --- | --- | --- | --- | --- | --- | --- | --- | --- | --- | --- | --- | --- | --- |
| CC(C)c1ccc(Cl)cc1CN(C(=O)c1c(C(F)F)nn(C)c1F)C1CC1 [A5, N-(5-chloro-2-isopropylbenzyl)-N-cyclopropyl-3-(difluoromethyl)-5-fluoro-1-methyl-1H-pyrazole-4-carboxamide] | 0% | 44% | 94% | 20% | 60% | – | – | – | – | – | – | – | – | – | Efficacy in % found ([1]; Table 5b, 0.5 ppm a.i.): 16%; Efficacy in % found ([1]; Table 5b, 2 ppm a.i.): 72%; pest or weed control at 40 ppm ([3]; Table 6f, 40 ppm a.i.): 25%; pest or weed control at 0.5 ppm ([4]; Venturia inaequalis, 240 h, read-out: Efficacy in % found, Table 2e): 15%; pest or weed control at 2 ppm ([4]; Venturia inaequalis, 240 h, read-out: Efficacy in % found, Table 2e, 2 ppm a.i.): 57%; pest or weed control at 0.25 ppm ([4]; Venturia inaequalis, 240 h, read-out: Efficacy in % found, Table 2d, 0.25 ppm a.i.): 0%; pest or weed control at 0.5 ppm ([4]; Venturia inaequalis, 240 h, read-out: Efficacy in % found, Table 2d): 0%; pest or weed control at 0.5 ppm ([6]; Table 3e): 6%; pest or weed control at 0.5 ppm ([6]; Table 3d): 0%; pest or weed control at 10 ppm [7, 13]: 0%; pest or weed control at 40 ppm [7, 13]: 0%; pest or weed control at 40 ppm ([7]; read-out: Efficacy in % found, Table 8f): 38%; pest or weed control at 40 ppm ([9]; application rate 40 ppm a.i.): 93%; pest or weed control at 0.5 ppm ([10]; Table 4d): 0% |
| Cn1nc(C(F)F)c(C(=O)N(Cc2cc(Cl)ccc2C(F)(F)F)C2CC2)c1F [A15, N-[5-chloro-2-(trifluoromethyl)benzyl]-N-cyclopropyl-3-(difluoromethyl)-5-fluoro-1-methyl-1H-pyrazole-4-carboxamide] | 0% | 44% | 89% | – | – | 0% | 25% | 0% | 67% | 63% | 0% | 0% | 57% | – | Efficacy in % found ([1]; Table 5a, 2.5 ppm a.i.): 8%; pest or weed control at 10 ppm ([3]; Table 6b): 13%; pest or weed control at 40 ppm ([3]; Table 6b, 40 ppm a.i.): 70%; pest or weed control at 40 ppm ([3]; Table 6c, 40 ppm): 75%; pest or weed control at 0.5 ppm ([4]; Venturia inaequalis, 240 h, read-out: Efficacy in % found, Table 2a): 0%; pest or weed control at 0.25 ppm ([6]; Table 3b, 0.25 ppm): 59%; pest or weed control at 10 ppm ([7]; read-out: Efficacy in % found, Table 8c): 63%; pest or weed control at 0.25 ppm ([10]; Table 4c): 29% |
| Cn1nc(C(F)F)c(C(=O)N(Cc2c(Cl)cccc2C(F)(F)F)C2CC2)c1F [A17, N-[2-chloro-6-(trifluoromethyl)benzyl]-N-cyclopropyl-3-(difluoromethyl)-5-fluoro-1-methyl-1H-pyrazole-4-carboxamide] | 0% | – | 67% | 33% | 67% | 0% | 30% | 8% | 86% and 89% | 71% | – | – | – | 50% | pest or weed control at 10 ppm ([3]; Table 6a): 95%; pest or weed control at 0.5 ppm ([6]; Table 3c): 32%; pest or weed control at 10 ppm ([7]; read-out: Efficacy in % found, Table 8d): 43%; pest or weed control at 10 ppm ([8]; Table 9e, 10 ppm a.i.): 29%; pest or weed control at 0.5 ppm ([10]; Table 4a): 74%; pest or weed control at 0.25 ppm ([10]; Table 4b): 71% |
| CC(C)C1C2CCC1c1c(NC(=O)c3cn(C)nc3C(F)F)cccc12 (stereo not drawn) [B2.11, isopyrazam (syn + anti)] | – | – | – | – | – | – | – | – | 0% | – | – | 0% | – | – | Efficacy in % found ([4]; Table 2d, 0.25 ppm a.i.): 88%; Efficacy in % found ([5]; application rate 10 ppm a.i.): 33%; Efficacy in % found ([8]; Table 9b, 10 ppm a.i.): 0% |
| CON=C(C(=O)OC)c1ccccc1CON=C(C)c1cccc(C(F)(F)F)c1 [B3.22, trifloxystrobin] | – | – | – | 40% | 57% | – | – | – | – | – | 25% | – | 13% | 0% | pest or weed control at 1 ppm ([10]; Table 4c, 1 ppm a.i.): 21% |

— US12642271B2, “Active compound combinations comprising a (thio)carboxamide derivative and a fungicidal compound” (Bayer CropScience Aktiengesellschaft, priority 2011, dated 2026)
